Test results reported in publication PMC4066839 (MedChemComm, 2014).

System: C. neoformans
Assay: in vitro growth inhibition
Assay type: cell-based, Cryptococcus neoformans
Details: highest tested concentration 20 μg/mL; NA = not active

COc1ccc(-c2nc(C[C@H](N)C(=O)N[C@@H](CCCNC(=N)N)C(=O)NCc3ccccc3)c[nH]2)cc1 [Peptide 5d]
C. neoformans IC50 (concentration that affords 50% inhibition of growth): inactive
